From paper PMC10127268, “Rational Design of Phosphorylation-Responsive Coiled Coil-Peptide Assemblies” (ACS Synthetic Biology, 2023)
Where two headings read alike, the source gives them in different places.

T1: CC-Tet-A-S14 (N-terminal acetyl; C-terminal amide)
T1 chain: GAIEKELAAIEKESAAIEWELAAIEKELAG

T2: apCC-Tet-A-S17 (N-terminal acetyl; C-terminal amide)
T2 chain: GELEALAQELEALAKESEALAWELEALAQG


What was measured:
[1] = even at 100 μM; cited from earlier work
[2] = CD, PBS pH 7.4, 10 μM individual peptide; ref 5 (Edgell et al., 2020); cited from earlier work
Description: page 28: Table S4. Biophysical parameters for switchable peptides and complexes. Peptide(s) Helicity at 5 °C (%)a TM (°C) CC-Tet-A 37b < 20b CC-Tet-B 37b < 20b CC-Tet-A-S14 23 < 20 CC-Tet-A-S7 29 < 20 CC-Tet-A-S21 25 < 20 CC-Tet-B-RRXS14 26 < 20 CC-Tet-A + B 87b > 95b CC-Tet-A-S14 + B-RRXS14 67 62 CC-Tet-A-S7 + B-RRXS14 70 66 CC-Tet-A-S21 + B-RRXS14 81 72 apCC-Tet-A-S10 48 < 20 apCC-Tet-A-S17 42 < 20 apCC-Tet-B-S20 40 < 20 apCC-Tet-B-RRXS13 39 < 20 apCC-Tet-B-RRXS20 38 < 20 apCC-Tet-A-S10 + B-S20 93 > 95 apCC-Tet-A-S10 + B-RRXS20 80 75 apCC-Tet-A-S17 + B-RRXS13 84 72 apCC-Tet-A-S17 + B-RRXS20 ...

[3] = Thermal denaturation monitored by CD (MRE222), midpoint TM; type: physicochemical; settings: for TM (°C), midpoint of thermal unfolding: CD at 222 nm, 5 to 95 °C, PBS pH 7.4, 10 μM individual peptide; for folding and thermal stability by CD, in words: PBS pH 7.4, 10 µM individual peptide
Description: (§1) CD spectra and thermal denaturation curves were obtained using a JASCO J810 or 815 spectropolarimeter fitted with a Peltier temperature controller. CD spectra (260 to 190 nm, with 1 nm step size, 100 nm.min^–1 scanning speed, 1 nm bandwidth and 1 s response time) were measured in PBS (137 mM NaCl, 2.7 mM KCl, and 10 mM phosphate buffer, pH 7.4) at 5 °C in quartz cuvettes. Thermal denaturation experiments were performed using 10 μM individual peptide concentration in a 5 mm cuvette. For thermal denaturation experiments, the CD signal at 222 nm was recorded at 1 °C intervals upon heating from 5 to 95 °C at a rate of 40 or 60 °C/h (1 nm interval, 1 nm bandwidth, 16 s response time). Data was buffer subtracted, and then normalized for peptide concentration, number of amide bonds present, and cuvette path length to give the mean residue ellipticity (MRE). Midpoints of thermal denaturation were calculated using the second derivative of the corresponding thermal denaturation curve. Fraction helix (%) was calculated using the following equation (where MREcoil = 640 – 45T; T, temperature (°C); n, number of amide bonds in sample including C-terminal amide):[68] [drawing 2]

[4] = CD spectroscopy, helicity at 5 °C; type: physicochemical; settings: PBS pH 7.4, 10 μM individual peptide
Description: as §1

[5] = target: CC-Tet-A-S14; experiment: Isothermal titration calorimetry (ITC) of CC-Tet-B-RRXS14 into CC-Tet-A-S14; type: binding; settings: 200 μM CC-Tet-B-RRXS14 into 20 μM CC-Tet-A-S14, PBS, 37 °C, heterodimer model, global fit n = 3, read-out: observable KD (concentration at which the complex is half folded)
Description: To model the disassembly of the A2B2 complex into the unfolded peptides A and B, we needed to determine the dissociation constant (KD) and use this to estimate the forward and reverse rate constants, koff and kon (Figure 5). To do this, we used isothermal titration calorimetry (ITC), titrating CC-Tet-B-RRXS14 into 20 μM CC-Tet-A-S14 at 37 °C, and the heat released upon binding was measured. […] We contend that this sub-μM KD—which is consistent with our CD measurements (Figure S30)—is close to ideal for use in synthetic biology systems in cells and in vitro, as functioning at μM concentrations leaves the system poised in a folded state, but close to unfolding, rendering it receptive to phosphorylation-induced switching.
Peptides were dissolved in PBS buffer to a concentration around 1 mM and a volume of 1 mL. Samples were then individually dialyzed into 1.5 L of PBS with gentle stirring overnight using a Mini Dialysis Kit (Cyvita) with a 1 kDa membrane cut off. Sample concentration was subsequently remeasured to account for changes in volume because of diffusion during dialysis. […]
To analyze the data, NITPIC, SEDPHAT, and GUSSI were used.[72]−[74] […] Following this, experiments were analyzed using SEDPHAT, which allowed correction of concentration deviations and outlier injection exclusion, after which data was fitted to a heterodimer model (as no heterotetramer model was available). […]

[6] = Sedimentation-velocity analytical ultracentrifugation; type: physicochemical; settings: PBS pH 7.4, 20 °C, 70 μM of each peptide for mixtures
Description: Sedimentation-velocity (SV) experiments were conducted at 20 °C in a Beckman-Optima XL-I analytical ultracentrifuge using an An-60 Ti rotor. Samples were prepared in PBS at 140 μM total peptide concentration. Samples were centrifuged at a speed of 50,000 or 60,000 rpm. The partial specific volume (v̅) for each peptide was calculated and data sets were fitted to a single, ideal species model using SEDFIT. Sedimentation-equilibrium (SE) experiments were conducted at 20 °C in a Beckman-Optima XL-I analytical ultracentrifuge using an An-50 Ti rotor. Samples were prepared in PBS at 70 μM total peptide concentration. Samples were centrifuged at a range of speeds from 18,000–39,000 rpm with defined intervals, and 8 h between subsequent scans. Data sets were analyzed using SEDPHAT.

[7] = target: T1, CC-Tet-A-S14; experiment: ITC; 200 μM CC-Tet-B-RRXS14 injected into 20 μM CC-Tet-A-S14, 37 °C, PBS; fitted to a heterodimer model, global fit of three experiments; observable (apparent) KD; settings: both partners purified
[8] = target: T1, CC-Tet-A-S14; experiment: kinetic model fitted to the CD phosphorylation time course; ordinary differential equations (Berkeley Madonna); koff and kon optimised with K_D(T) held at 3.18 × 10^-19 M^3; tetramer A2B2 to unfolded peptides A and B; 37 °C, 10 μM of each peptide; settings: both partners purified
[9] = target: T2, apCC-Tet-A-S17; experiment: circular dichroism (Job plot); fraction helix at different ratios of the two peptides, total peptide concentration 20 μM, PBS pH 7.4; settings: both partners purified

| TM (°C), midpoint of thermal unfolding [3] | Helicity at 5 °C (%) [4] | Molecule | also measured |
| --- | --- | --- | --- |
| < 20 °C | 42% | Ac-G ELEALAQ ELEALAK ESEALAW ELEALAQ G-NH2 [apCC-Tet-A-S17, acidic antiparallel peptide with Ser at position 17] | – |
| < 20 °C | 48% | Ac-G ELEALAQ ESEALAK ELEALAW ELEALAQ G-NH2 [apCC-Tet-A-S10, acidic antiparallel peptide with Ser at position 10] | – |
| < 20 °C | 40% | Ac-G KLKALAQ KLKALAK KLKASAW KLKALAQ G-NH2 [apCC-Tet-B-S20, basic antiparallel peptide with Ser at position 20] | – |
| < 20 °C | 38% | Ac-G KLKALAQ KLKALAK KRRASAW KLKALAQ G-NH2 [apCC-Tet-B-RRXS20, basic antiparallel peptide with PKA site, Ser at position 20] | – |
| < 20 °C | 39% | Ac-G KLKALAQ KRRASAK KLKALAW KLKALAQ G-NH2 [apCC-Tet-B-RRXS13, basic antiparallel peptide with PKA site, Ser at position 13] | – |

The remaining lines, values behind:

| Molecule | TM (°C), midpoint of thermal unfolding [3] | Helicity at 5 °C (%) [4] | also measured |
| --- | --- | --- | --- |
| Ac-G AIEK ELAAIEK ELAAIEW ELAAIEK ELA G-NH2 [CC-Tet-A, acidic peptide of the previously published parallel heterotetramer CC-Tet-A2B2] | – | – | self-association of individual peptide [1]: do not self-associate; TM (°C), midpoint of thermal unfolding [2]: < 20 °C |
| Ac-G AIEK ELAAIEK ELAAIEW ESAAIEK ELA G-NH2 [CC-Tet-A-S21, CC-Tet-A variant with Ser at position 21] | < 20 °C | 25% | – |
| Ac-G AIEK ELAAIEK ESAAIEW ELAAIEK ELA G-NH2 [CC-Tet-A-S14, CC-Tet-A variant with Ser at position 14] | < 20 °C | 23% | – |
| Ac-G AIEK ESAAIEK ELAAIEW ELAAIEK ELA G-NH2 [CC-Tet-A-S7, CC-Tet-A variant with Ser at position 7] | < 20 °C | 29% | – |
| Ac-G AIKQ KLAAIKQ KLAAIKW KLAAIKQ KLA G-NH2 [CC-Tet-B, basic peptide of the previously published parallel heterotetramer CC-Tet-A2B2] | – | – | self-association of individual peptide [1]: do not self-associate; TM (°C), midpoint of thermal unfolding [2]: < 20 °C |
| Ac-G AIKQ KLAAIRR KSAAIKW KLAAIKQ KLA G-NH2 [CC-Tet-B-RRXS14, basic parallel peptide with PKA site R-R-X-S, Ser at position 14] | < 20 °C | 26% | Kd [5]: 542 nM |
| Ac-G ELEALAQ ELEALAK ELEALAW ELEALAQ G-NH2 [apCC-Tet-A1, initial acidic antiparallel design] | – | – | oligomeric state from SV AUC (x monomer mass) [6]: 4.5 x monomer mass; folding and thermal stability by CD, in words [3]: stably folded |
| Ac-G KLKALAQ KLKALAK KLKALAW KLKALAQ G-NH2 [apCC-Tet-B1, initial basic antiparallel design] | – | – | oligomeric state from SV AUC (x monomer mass) [6]: 5.2 x monomer mass; folding and thermal stability by CD, in words [3]: stably folded |
| Ac-GAIKQKLAAIRRKSAAIKWKLAAIKQKLAG-NH2 [CC-Tet-B-RRXS14] | – | – | Kd [7]: 542 nM; stoichiometry N [7]: ~1; koff [8]: 0.0038 s⁻¹; kon [8]: 229000 M⁻¹ s⁻¹ |
| Ac-GKLKALAQKLKALAKKLKASAWKLKALAQG-NH2 [apCC-Tet-B-S20] | – | – | stoichiometry N [9]: 1 |
